Consider two molecules from patent US20220288228A1, “METHODS OF CANCER TREATMENT BY DELIVERY OF siRNAs AGAINST BCLXL AND MCL1 USING A POLYPEPTIDE NANOPARTICLE” (Sirnaomics, Inc., priority 2021, published 2022).

The target of one data set is BCLxL (Homo sapiens, UniProt Q07817). Conditions: consequence of its inhibition of BCLxL; cited from earlier work.
The next data set concerns FaDu H&N cancer cells. The data set is described as follows: Sensitivity of FaDu cells to cisplatin with siRNAs. The class given is cell-based. Here is the method:
BCLxL and MCL1 siRNAs were mixed together in Lipofectamine RNAiMax and used to transfect FaDu H&N cancer cells. Final combined siRNA concentrations of 0.05 nM, 0.15 nM and 0.45 nM were compared with the effect of a non-silencing (NS) siRNA administered at the same concentrations. The effect of treatment with siRNAs on sensitivity to cisplatin (at 0-64 μM) also were evaluated.

Sequence of BCLxL (Q07817 whole entry, species assumed): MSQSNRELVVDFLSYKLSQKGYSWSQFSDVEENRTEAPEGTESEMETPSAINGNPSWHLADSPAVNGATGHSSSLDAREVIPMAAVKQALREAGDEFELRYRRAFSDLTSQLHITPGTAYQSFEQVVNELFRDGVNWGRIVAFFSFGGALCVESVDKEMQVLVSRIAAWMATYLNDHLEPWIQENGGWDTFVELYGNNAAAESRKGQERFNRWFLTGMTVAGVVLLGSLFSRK

With `CC1(C)CCC(c2ccc(Cl)cc2)=C(CN2CCN(c3ccc(C(=O)NS(=O)(=O)c4ccc(N[C@H](CCN5CCOCC5)CSc5ccccc5)c(S(=O)(=O)C(F)(F)F)c4)cc3)CC2)C1` [ABT263], at BCLxL, the thrombocytopenia result is “induces thrombocytopenia”. On to `N.N.[Cl][Pt][Cl]` [cisplatin], for which the “amount of cisplatin required to cause 100% inhibition of the tumor cell viability” value in the data set with FaDu H&N cancer cells (in the presence of 0.45 nM NS siRNA) was roughly 32 µM; with FaDu H&N cancer cells (in the presence of 0.45 nM of BCLxL/MCL1 siRNAs), less than 1 µM.
